Reference: US20210386768A1, “COMBINATION MEDICINE” (FUJIFILM Corporation, priority 2019, published 2021)

Legend:
Assay type in all cases: cell-based, human
[1] = system: FLT3-ITD mutation-positive leukemia cell line MV-4-11; experiment: Proliferation inhibitory activity against MV-4-11 by combined use of anti-cancer agents (CellTiter-Glo, combination index)
Experimental: <Evaluation of Proliferation Inhibitory Activity Against FLT3-ITD Mutation-Positive Leukemia Cell Line MV-4-11 by Combined Use of Anti-Cancer Agent>
MV-4-11 cells which are a human FLT3-ITD mutation-positive leukemia cell line were subcultured in an RPMI-1640 medium containing 10% serum. During this test, all cell cultures were performed in a CO2 incubator (setting: 37° C., 5% CO2, water vapor saturated). Cells were diluted with a medium containing 10% serum to 1,000 cells/well/20 μL and seeded on a 384-well plate.
After being serially diluted with DMSO and further being diluted with a medium containing 10% serum, each of the test substance solutions having a concentration 10 times the final treatment concentration was prepared.
(§1) In addition, a group (a positive control group) in which only a solvent containing no drugs was added to a well in which cells were plated and a group (a negative control group) in which only a solvent containing no drugs was added to a well in which only a medium was added were prepared.
After the addition of the drug, cells were cultured for 3 days, and the cell viability was evaluated using CellTiter-Glo (registered trade mark) Reagent (Cat. #G7570, manufactured by Promega Corporation) using the amount of ATP in the cells as an indicator.
(§2) The suppression rate was determined by assuming that the amount of luminescence signal in the negative control group corresponded to the suppression of cell viability by 100% and the amount of luminescence signal in the positive control group corresponded to the suppression of cell viability by 0%. The concentration (IC50 value) at which cell viability is suppressed by 50% was calculated using XLFit (registered trade mark) software Ver. 3 (manufactured by ITOCHU Techno-Solutions Corporation). The suppression effect (Fa, the fraction affected by the dose) was calculated by dividing the suppression rate by 100.
(§3) The combination effect of the present invention was determined by calculating the combination index (CI), which is a quantitative indicator of the combination effect, using CalcuSyn (BIOSOFT) based on the value of the suppression effect.
(§4) In the table, “Fa around 0.5” and “Fa around 0.75” mean the effect of suppressing the cell viability by about 50% and about 75%, respectively, in a case where drugs are used in combination.

[2] = system: Cell derived from FLT3-ITD mutation-negative leukemia patient; experiment: Proliferation inhibitory activity against cells derived from a leukemia patient by combined use (CellTiter-Glo, combination index), FLT3-ITD negative
Experimental: (§5) <Evaluation of Proliferation Inhibitory Activity Against Cell Derived from Leukemia Patient by Combined Use of Existing Anti-Cancer Agent>
(§6) Monocytes isolated from bone marrow or peripheral blood of two leukemia patients (one patient is FLT3-ITD mutation-positive, and the other patient is FLT3-ITD mutation-negative) were used and cultured in MethoCult™ H4534 Classic Without EPO (Cat. #H4534, manufacture by […] technologies). During this test, all cell cultures were performed in a CO2 incubator (setting: 37° C., 5% CO2, water vapor saturated). Cells were diluted with medium to 5,000 cells/well/90 μL and seeded on a 96-well plate.
(§7) After serially diluting with DMSO and further diluting with a medium, each of the test substance solutions having a concentration 10 times the final treatment concentration was prepared.
as §1
(§8) After the addition of the drug, cells were cultured for 7 or 8 days, and the cell viability was evaluated using CellTiter-Glo (registered trade mark) Reagent (Cat. #G7570, manufactured by Promega Corporation) using the amount of ATP in the cells as an indicator.
as §2, §3, §4

[3] = system: Cell derived from FLT3-ITD mutation-positive leukemia patient; experiment: Proliferation inhibitory activity against cells derived from a leukemia patient by combined use (CellTiter-Glo, combination index), FLT3-ITD positive
Experimental: as §5, §6, §7, §1, §8, §2, §3, §4

[4] = in combination with Compound A1, MV-4-11
[5] = in combination with Compound A1
[6] = in combination with Compound A1, concentration fixing ratio A1:decitabine 1:10, A1:venetoclax 1:1, 7 or 8 days

Substance: Venetoclax
- combination index (CI), Fa around 0.5 ([1]; in combination with Compound A1 (succinate salt), concentration fixing ratio A1:decitabine 1:3,000, A1:venetoclax 1:120, MV-4-11, 3 days, average of 4 experiments, about 50% suppression of cell viability): ++ (0.7 or more and less than 0.85, a moderate synergistic effect)
- combination index (CI), Fa around 0.75 ([1]; in combination with Compound A1 (succinate salt), concentration fixing ratio A1:decitabine 1:3,000, A1:venetoclax 1:120, MV-4-11, 3 days, average of 4 experiments, about 75% suppression of cell viability): +++ (Less than 0.7, a strong synergistic effect)
- combination effect in words, suppression effect around 0.5 [1, 4]: moderate synergistic effect
- combination effect in words, suppression effect around 0.75 [1, 4]: strong synergistic effect
- combination effect in words, suppression effect around 0.5 [2, 5]: strong synergistic effect
- combination effect in words, suppression effect around 0.75 [2, 5]: strong synergistic effect
- combination index (CI), Fa around 0.5 [2, 6]: +++ (Less than 0.7, a strong synergistic effect)
- combination index (CI), Fa around 0.75 [2, 6]: +++ (Less than 0.7, a strong synergistic effect)
- combination effect in words, suppression effect around 0.5 [3, 5]: strong synergistic effect
- combination effect in words, suppression effect around 0.75 [3, 5]: strong synergistic effect
- combination index (CI), Fa around 0.5 [3, 6]: +++ (Less than 0.7, a strong synergistic effect)
- combination index (CI), Fa around 0.75 [3, 6]: +++ (Less than 0.7, a strong synergistic effect)
